Results from ChEMBL document CHEMBL4840367, “2-Phenylcyclopropylmethylamine Derivatives as Dopamine D2 Receptor Partial Agonists: Design, Synthesis, and Biological Evaluation” (J Med Chem, 2021).
Where “and” joins values, the source holds several entries; their conditions need not be identical. Equal entries are not always repeated.

Tests used:
D(2) dopamine receptor [1] = molecular target: T1, D(2) dopamine receptor (Homo sapiens, UniProt P14416); format: cell membranes, HEK293T, Membrane
D(2) dopamine receptor [2] = molecular target: T1, D(2) dopamine receptor
D(2) dopamine receptor [3] = molecular target: T1, D(2) dopamine receptor; remark: listed apart in the source
[4] = molecular target: T2, 5-hydroxytryptamine receptor 2C (Homo sapiens, UniProt P28335)
T2 sequence (P28335 whole entry): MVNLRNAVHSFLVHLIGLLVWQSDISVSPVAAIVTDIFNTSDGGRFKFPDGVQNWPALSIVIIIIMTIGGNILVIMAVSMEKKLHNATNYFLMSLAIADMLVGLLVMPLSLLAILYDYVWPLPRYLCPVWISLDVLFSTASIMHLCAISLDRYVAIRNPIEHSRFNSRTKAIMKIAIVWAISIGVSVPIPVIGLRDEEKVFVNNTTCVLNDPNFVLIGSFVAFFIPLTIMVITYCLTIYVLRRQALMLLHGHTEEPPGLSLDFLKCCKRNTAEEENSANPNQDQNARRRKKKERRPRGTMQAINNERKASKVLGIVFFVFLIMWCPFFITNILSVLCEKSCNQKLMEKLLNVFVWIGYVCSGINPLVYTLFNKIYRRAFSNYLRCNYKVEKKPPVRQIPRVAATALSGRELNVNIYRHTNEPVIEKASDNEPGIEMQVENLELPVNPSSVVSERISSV

[5] = molecular target: 5-hydroxytryptamine receptor 2A (Homo sapiens, UniProt P28223); format: cell membranes, HEK293T, Membrane
Chain of 5-hydroxytryptamine receptor 2A (P28223 whole entry): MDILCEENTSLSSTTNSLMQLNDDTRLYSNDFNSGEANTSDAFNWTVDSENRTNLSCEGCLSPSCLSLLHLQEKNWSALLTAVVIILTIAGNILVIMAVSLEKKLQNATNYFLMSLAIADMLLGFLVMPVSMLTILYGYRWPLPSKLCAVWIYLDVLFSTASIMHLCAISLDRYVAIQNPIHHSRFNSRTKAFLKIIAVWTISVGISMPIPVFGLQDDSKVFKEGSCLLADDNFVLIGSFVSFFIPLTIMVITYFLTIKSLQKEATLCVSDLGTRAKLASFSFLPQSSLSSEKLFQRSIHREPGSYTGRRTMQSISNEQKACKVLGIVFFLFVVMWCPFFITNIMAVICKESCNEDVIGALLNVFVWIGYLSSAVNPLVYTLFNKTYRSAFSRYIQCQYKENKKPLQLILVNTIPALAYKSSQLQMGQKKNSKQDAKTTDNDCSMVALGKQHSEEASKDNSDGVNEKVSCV

D(4) dopamine receptor = molecular target: T3, D(4) dopamine receptor (Homo sapiens, UniProt P21917)
T3 sequence (P21917 whole entry): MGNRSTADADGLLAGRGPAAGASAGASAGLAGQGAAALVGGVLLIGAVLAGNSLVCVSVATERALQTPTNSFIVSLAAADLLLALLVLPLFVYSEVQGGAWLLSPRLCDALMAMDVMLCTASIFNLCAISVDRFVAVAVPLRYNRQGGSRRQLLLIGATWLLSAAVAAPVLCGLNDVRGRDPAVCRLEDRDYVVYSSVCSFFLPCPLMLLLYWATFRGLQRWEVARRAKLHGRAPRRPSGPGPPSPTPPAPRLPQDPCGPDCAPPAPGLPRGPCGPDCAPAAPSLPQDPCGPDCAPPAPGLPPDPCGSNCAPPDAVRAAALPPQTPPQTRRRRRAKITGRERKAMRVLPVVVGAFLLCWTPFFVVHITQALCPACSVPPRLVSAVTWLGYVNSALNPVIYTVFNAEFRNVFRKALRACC

D(1A) dopamine receptor = D(1A) dopamine receptor (Homo sapiens, UniProt P21728)
Chain of D(1A) dopamine receptor (P21728 whole entry): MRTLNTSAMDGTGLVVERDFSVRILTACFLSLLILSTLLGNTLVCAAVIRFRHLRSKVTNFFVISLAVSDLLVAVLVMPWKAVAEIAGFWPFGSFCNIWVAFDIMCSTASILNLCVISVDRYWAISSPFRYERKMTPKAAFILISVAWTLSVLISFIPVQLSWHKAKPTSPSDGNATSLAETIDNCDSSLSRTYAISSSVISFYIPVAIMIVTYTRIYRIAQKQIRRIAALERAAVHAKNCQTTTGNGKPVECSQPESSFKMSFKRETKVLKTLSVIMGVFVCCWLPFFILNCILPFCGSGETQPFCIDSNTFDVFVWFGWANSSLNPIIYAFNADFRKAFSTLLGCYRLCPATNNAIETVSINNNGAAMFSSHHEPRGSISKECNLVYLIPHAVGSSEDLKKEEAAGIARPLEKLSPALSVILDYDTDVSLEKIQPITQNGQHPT

in vitro [6] = details: human, liver microsomes
Description: Metabolic stability in human liver microsomes assessed as half life preincubated for 5 mins followed by NADPH addition measured after 10 mins by LC-MS analysis

in vitro [7] = details: mouse, liver microsomes
Description: Metabolic stability in mouse liver microsomes assessed as half life preincubated for 5 mins followed by NADPH addition measured after 10 mins by LC-MS analysis

T1 sequence (P14416 whole entry): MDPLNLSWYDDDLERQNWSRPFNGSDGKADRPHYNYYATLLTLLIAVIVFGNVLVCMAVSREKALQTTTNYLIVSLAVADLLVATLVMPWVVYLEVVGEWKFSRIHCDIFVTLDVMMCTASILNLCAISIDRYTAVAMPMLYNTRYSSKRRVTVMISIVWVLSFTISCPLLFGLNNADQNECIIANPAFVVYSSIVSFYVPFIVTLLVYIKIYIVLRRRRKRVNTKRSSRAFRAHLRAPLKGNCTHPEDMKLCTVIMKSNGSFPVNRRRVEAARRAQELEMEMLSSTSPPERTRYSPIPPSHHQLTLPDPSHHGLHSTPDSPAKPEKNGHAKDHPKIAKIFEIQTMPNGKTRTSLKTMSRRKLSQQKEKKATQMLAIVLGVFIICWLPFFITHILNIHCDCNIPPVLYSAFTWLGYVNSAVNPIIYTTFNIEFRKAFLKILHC

Row | SMILES | Ki (D(2) dopamine receptor [1]) [nM] | EC50 (D(2) dopamine receptor [2]) | EC50 (D(2) dopamine receptor [3]) [nM] | also measured
1 | CN(C)C(=O)N[C@H]1CC[C@H](CCNCC2CC2c2cccc3c2OCCO3)CC1 (stereo not given in full) | 2310 |  |  | 
2 | COc1ccccc1C1CC1CNCC[C@H]1CC[C@H](NC(=O)N(C)C)CC1 (stereo not given in full) | 1820 |  |  | 
3 | COc1ccc(Cl)cc1[C@H]1C[C@@H]1CNCCCCOc1ccc2c(c1)NC(=O)CC2 |  |  |  | Ki [4]: 373 nM; Ki [5]: 2090 nM; Ki (D(4) dopamine receptor): 373 nM; Ki (D(1A) dopamine receptor): > 10000 nM
4 | COc1ccc(Cl)cc1[C@H]1C[C@@H]1CNCCCOc1ccc2ccc(=O)[nH]c2c1 |  |  |  | Ki [4]: 604 nM; Ki [5]: 1160 nM; Ki (D(4) dopamine receptor): 604 nM; Ki (D(1A) dopamine receptor): > 10000 nM
5 | CN1CCc2ccccc2Cc2[nH]c3ccccc3c2CC1 |  |  |  | Ki (D(1A) dopamine receptor): 2.93 nM
6 | CN(C)C(=O)N[C@H]1CC[C@H](CCNCC2CC2c2cccc(Cl)c2Cl)CC1 (stereo not given in full) | 1330 |  |  | 
7 | COc1ccc(F)cc1[C@H]1C[C@@H]1CNCCCCOc1ccc2ccc(=O)[nH]c2c1 |  |  |  | Ki [4]: 122 nM; Ki [5]: 1410 nM; Ki (D(4) dopamine receptor): 122 nM; Ki (D(1A) dopamine receptor): > 10000 nM
8 | COc1ccccc1C1CC1CNC/C=C/COc1ccc2c(c1)NC(=O)CC2 (stereo not given) | 454 | 61.3 nM and 60.3 nM | 22.9 | 
9 | COc1ccccc1C1CC1CNCC[C@H]1CC[C@H](NC(=O)c2ccccc2)CC1 (stereo not given in full) | 1040 |  |  | 
10 | COc1ccc(F)cc1[C@H]1C[C@@H]1CNCCCOc1ccc2ccc(=O)[nH]c2c1 |  |  |  | Ki [4]: 305 nM; Ki [5]: 520 nM; Ki (D(4) dopamine receptor): 305 nM; Ki (D(1A) dopamine receptor): > 10000 nM
11 | CN(C)C(=O)N[C@H]1CC[C@H](CCN2CCN(c3cccc(Cl)c3Cl)CC2)CC1 [CARIPRAZINE] |  |  |  | half-life at 10 min (in vitro [6]): 32.7 min; half-life at 10 min (in vitro [7]): 22.3 min
12 | O=C1CCc2ccc(OCCCCNCC3CC3c3cccc4c3OCCO4)cc2N1 (stereo not given) | 384 | 61.7 nM | 95.5 | 
13 | COc1ccccc1C1CC1CNCC[C@H]1CC[C@H](NC(=O)N2CCCC2)CC1 (stereo not given in full) | 2190 |  |  | 

Continued by falling Ki (D(2) dopamine receptor [1]), values first:

Row | Ki (D(2) dopamine receptor [1]) [nM] | EC50 (D(2) dopamine receptor [2]) | EC50 (D(2) dopamine receptor [3]) [nM] | SMILES | also measured
14 | 366 | 35.7 nM | 18.9 | CSc1ccccc1C1CC1CNCCCCOc1ccc2c(c1)NC(=O)CC2 (stereo not given) | 
15 | 322 |  |  | CN(CCCCOc1ccc2c(c1)NC(=O)CC2)CC1CC1c1cccc(Cl)c1Cl (stereo not given) | 
16 | 259 | 417 nM | 891 | COc1ccccc1C1CC1CNCCCCCOc1ccc2c(c1)NC(=O)CC2 (stereo not given) | 
17 | 178 | 23.4 nM | 26.3 | O=c1ccc2ccc(OCCCCNCC3CC3c3cccc4c3OCCO4)cc2[nH]1 (stereo not given) | 
18 | 156 | 7.08 nM | 11.2 | COc1ccccc1C1CC1CNCCCOc1ccc2ccc(=O)[nH]c2c1 (stereo not given) | 
19 | 126 | 10 nM | 9.3 | COc1ccccc1C1CC1CNCCCOc1ccc2c(c1)NC(=O)CC2 (stereo not given) | 
20 | 95.2 | 7.43 nM | 2.88 | CSc1ccccc1C1CC1CNCCCCOc1ccc2ccc(=O)[nH]c2c1 (stereo not given) | 
21 | 59.9 | 32.4 nM | 26.3 | COc1ccccc1C1CC1CNCCCCOc1ccc2ccc(=O)[nH]c2c1 (stereo not given) | 
22 | 27.4 | 14.9 nM | 3.47 | COc1ccc(F)cc1C1CC1CNCCCOc1ccc2c(c1)NC(=O)CC2 (stereo not given) | 
23 | 0.51 | 16.1 nM | 10.2 | O=c1ccc2ccc(OCCCCN3CCN(c4cccc5sccc45)CC3)cc2[nH]1 [BREXPIPRAZOLE] | half-life at 10 min (in vitro [6]): 27.2 min; half-life at 10 min (in vitro [7]): 17.2 min
